Results taken from the supplement of paper PMC10627819.

Columns and labels:
S. pneumoniae D39V [1] = assay: Bliss interaction score (quartile over a dose matrix) (fitness difference); higher = more antagonism (negative = synergy)
How it was run: (§1)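 Fitness here means normalised growth, inferred for single drugs from the combination data. Growth was OD595 at entry into stationary phase, divided by the plate's robust no-drug mean and capped at 1. The Bliss score is observed minus expected fitness, with the expectation being the product, and its quartiles span technical, biological and donor/recipient replicates.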

S. aureus Newman [2] = assay: as above
How it was run: as §1

S. aureus DSM 20231 [3] = assay: as above
How it was run: as §1

B. subtilis 168 [4] = assay: as above
How it was run: as §1

S. pneumoniae D39V [5] = assay: fitness (endpoint OD595 vs no drug) (fraction); higher = more growth
How it was run: (§2)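 Growth medium was TSB, LB Lennox or CY, and plates were kept at 37 °C. Inoculation was at OD595 0.01 in 384-well plates, at 30 µl per well or 55 µl for S. pneumoniae. OD595 was monitored every 30 min for 14 h and background-subtracted using the first reading. Fitness is the optical density on entering stationary phase divided by the robust mean of no-drug controls, with values capped at 1.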

S. aureus Newman [6] = assay: as above
How it was run: as §2

S. aureus DSM 20231 [7] = assay: as above
How it was run: as §2

B. subtilis 168 [8] = assay: as above
How it was run: as §2
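For Bliss interaction score (quartile over a dose matrix) in this document: first quartile when negative (synergy) and third quartile when positive (antagonism).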
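For fitness (endpoint OD595 vs no drug) in this document: OD595 on entry to stationary phase over no-drug wells; at most 1.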

O=C(O[C@@H]1Cc2c(O)cc(O)cc2O[C@@H]1c1cc(O)c(O)c(O)c1)c1cc(O)c(O)c(O)c1 [EGCG] + CCN(CC)CCOC(=O)c1ccc(N)cc1 [Procaine]
Conditions	Bliss interaction score
B. subtilis 168 [4]	-0.0744
S. aureus DSM 20231 [3]	0.0893
S. aureus Newman [2]	-0.124
S. pneumoniae D39V [1]	0.0572

fitness
Conditions	partner 85.5 µg/mL	partner 171 µg/mL	partner 342 µg/mL
B. subtilis 168 [8], first compound 6.25 µg/mL	0.913	0.882	0.88
B. subtilis 168 [8], first compound 12.5 µg/mL	0.715	0.75	0.599
B. subtilis 168 [8], first compound 25 µg/mL	–	–	0.227
S. aureus DSM 20231 [7], first compound 12.5 µg/mL	0.821	0.821	0.833
S. aureus DSM 20231 [7], first compound 25 µg/mL	0.809	0.858	0.886
S. aureus DSM 20231 [7], first compound 50 µg/mL	–	0.854	–
S. aureus Newman [6], first compound 12.5 µg/mL	0.729	0.764	0.77
S. aureus Newman [6], first compound 25 µg/mL	0.641	0.71	0.78
S. pneumoniae D39V [5], first compound 12.5 µg/mL	0.965	0.984	0.912
S. pneumoniae D39V [5], first compound 25 µg/mL	0.969	≥ 1	0.969
S. pneumoniae D39V [5], first compound 50 µg/mL	0.996	0.903	≥ 1

O=C(O[C@@H]1Cc2c(O)cc(O)cc2O[C@@H]1c1cc(O)c(O)c(O)c1)c1cc(O)c(O)c(O)c1 [EGCG] + CN[C@@H]1[C@H](O)[C@H](NC)[C@H]2O[C@@]3(O)C(=O)C[C@@H](C)O[C@H]3O[C@@H]2[C@H]1O [Spectinomycin]
Conditions	Bliss interaction score
B. subtilis 168 [4]	-0.0513
S. aureus DSM 20231 [3]	-0.0655
S. aureus Newman [2]	-0.0777
S. pneumoniae D39V [1]	-0.0456

fitness
Conditions	B. subtilis 168 [8]	S. aureus DSM 20231 [7]	S. aureus Newman [6]	S. pneumoniae D39V [5]
first compound 6.25 µg/mL, partner 2 µg/mL	0.919	–	–	–
first compound 6.25 µg/mL, partner 4 µg/mL	0.959	–	–	–
first compound 6.25 µg/mL, partner 8 µg/mL	0.942	–	–	–
first compound 12.5 µg/mL, partner 4 µg/mL	–	0.716	0.775	0.918
first compound 12.5 µg/mL, partner 8 µg/mL	0.755	0.841	0.825	0.892
first compound 12.5 µg/mL, partner 16 µg/mL	–	0.783	0.783	0.662
first compound 25 µg/mL, partner 4 µg/mL	–	0.795	0.631	0.884
first compound 25 µg/mL, partner 8 µg/mL	0.351	0.829	0.784	0.858
first compound 25 µg/mL, partner 16 µg/mL	–	0.696	–	0.692
first compound 50 µg/mL, partner 4 µg/mL	–	0.762	–	0.928
first compound 50 µg/mL, partner 8 µg/mL	–	0.778	0.748	0.942
first compound 50 µg/mL, partner 16 µg/mL	–	0.724	–	–

fitness, one replicate
Conditions	first compound 12.5 µg/mL	first compound 25 µg/mL	first compound 50 µg/mL
S. aureus DSM 20231 [7], partner 32 µg/mL	0.732	0.693	0.556
S. aureus DSM 20231 [7], partner 64 µg/mL	0.118	0.0939	0.028
S. aureus Newman [6], partner 32 µg/mL	0.385	0.167	0.0466
S. aureus Newman [6], partner 64 µg/mL	0.0419	0.0446	0.0186

CCC[C@@H]1C[C@@H](C(=O)N[C@@H]([C@H]2O[C@H](SC)[C@H](O)[C@@H](O)[C@H]2O)[C@H](C)Cl)N(C)C1 [Clindamycin] + COc1ccc(C[C@H](N)C(=O)N[C@H]2[C@@H](O)[C@H](n3cnc4c(N(C)C)ncnc43)O[C@@H]2CO)cc1 [Puromycin]
Conditions	Bliss interaction score
B. subtilis 168 [4]	0.0463
S. aureus DSM 20231 [3]	-0.0327
S. aureus Newman [2]	-0.0646
S. pneumoniae D39V [1]	-0.123

Conditions	fitness
B. subtilis 168 [8], first compound 0.0625 µg/mL, partner 0.39 µg/mL	0.534
B. subtilis 168 [8], first compound 0.0625 µg/mL, partner 0.78 µg/mL	0.52
B. subtilis 168 [8], first compound 0.0625 µg/mL, partner 1.56 µg/mL	0.564
B. subtilis 168 [8], first compound 0.125 µg/mL, partner 0.39 µg/mL	0.378
B. subtilis 168 [8], first compound 0.125 µg/mL, partner 0.78 µg/mL	0.355
B. subtilis 168 [8], first compound 0.125 µg/mL, partner 1.56 µg/mL	0.366
B. subtilis 168 [8], first compound 0.25 µg/mL, partner 0.39 µg/mL	0.347
B. subtilis 168 [8], first compound 0.25 µg/mL, partner 0.78 µg/mL	0.335
B. subtilis 168 [8], first compound 0.25 µg/mL, partner 1.56 µg/mL	0.344
S. aureus DSM 20231 [7], first compound 0.0625 µg/mL, partner 1.56 µg/mL	0.179
S. aureus DSM 20231 [7], first compound 0.125 µg/mL, partner 0.39 µg/mL	0.0343
S. aureus DSM 20231 [7], first compound 0.125 µg/mL, partner 0.78 µg/mL	0.0367
S. aureus DSM 20231 [7], first compound 0.125 µg/mL, partner 1.56 µg/mL	0.0565
S. aureus Newman [6], first compound 0.0312 µg/mL, partner 0.39 µg/mL	0.741
S. aureus Newman [6], first compound 0.0312 µg/mL, partner 0.78 µg/mL	0.717
S. aureus Newman [6], first compound 0.0312 µg/mL, partner 1.56 µg/mL	0.713
S. aureus Newman [6], first compound 0.0625 µg/mL, partner 0.39 µg/mL	0.395
S. aureus Newman [6], first compound 0.0625 µg/mL, partner 0.78 µg/mL	0.412
S. aureus Newman [6], first compound 0.0625 µg/mL, partner 1.56 µg/mL	0.326
S. aureus Newman [6], first compound 0.125 µg/mL, partner 0.39 µg/mL	0.101
S. aureus Newman [6], first compound 0.125 µg/mL, partner 0.78 µg/mL	0.115
S. aureus Newman [6], first compound 0.125 µg/mL, partner 1.56 µg/mL	0.13
S. pneumoniae D39V [5], first compound 0.0125 µg/mL, partner 1 µg/mL	0.766
S. pneumoniae D39V [5], first compound 0.0125 µg/mL, partner 2 µg/mL	0.712
S. pneumoniae D39V [5], first compound 0.0125 µg/mL, partner 4 µg/mL	0.473
S. pneumoniae D39V [5], first compound 0.025 µg/mL, partner 1 µg/mL	0.533
S. pneumoniae D39V [5], first compound 0.025 µg/mL, partner 2 µg/mL	0.475
S. pneumoniae D39V [5], first compound 0.025 µg/mL, partner 4 µg/mL	0.33
S. pneumoniae D39V [5], first compound 0.05 µg/mL, partner 1 µg/mL	0.261
S. pneumoniae D39V [5], first compound 0.05 µg/mL, partner 2 µg/mL	0.192
S. pneumoniae D39V [5], first compound 0.05 µg/mL, partner 4 µg/mL	0.11

one replicate
Conditions	fitness
B. subtilis 168 [8], first compound 0.0039 µg/mL, partner 0.39 µg/mL	0.956
B. subtilis 168 [8], first compound 0.0039 µg/mL, partner 0.78 µg/mL	0.946
B. subtilis 168 [8], first compound 0.0039 µg/mL, partner 1.56 µg/mL	≥ 1
B. subtilis 168 [8], first compound 0.0078 µg/mL, partner 0.39 µg/mL	0.853
B. subtilis 168 [8], first compound 0.0078 µg/mL, partner 0.78 µg/mL	0.876
B. subtilis 168 [8], first compound 0.0078 µg/mL, partner 1.56 µg/mL	0.92
B. subtilis 168 [8], first compound 0.0156 µg/mL, partner 0.39 µg/mL	0.826
B. subtilis 168 [8], first compound 0.0156 µg/mL, partner 0.78 µg/mL	0.907
B. subtilis 168 [8], first compound 0.0156 µg/mL, partner 1.56 µg/mL	0.894
S. aureus DSM 20231 [7], first compound 0.0312 µg/mL, partner 3.12 µg/mL	0.487
S. aureus DSM 20231 [7], first compound 0.0312 µg/mL, partner 6.24 µg/mL	0.14
S. aureus DSM 20231 [7], first compound 0.0625 µg/mL, partner 3.12 µg/mL	0.212
S. aureus DSM 20231 [7], first compound 0.0625 µg/mL, partner 6.24 µg/mL	0.0867
S. aureus DSM 20231 [7], first compound 0.125 µg/mL, partner 3.12 µg/mL	0.0522
S. aureus DSM 20231 [7], first compound 0.125 µg/mL, partner 6.24 µg/mL	0.0492
S. pneumoniae D39V [5], first compound 0.015 µg/mL, partner 1 µg/mL	0.746
S. pneumoniae D39V [5], first compound 0.015 µg/mL, partner 2 µg/mL	0.84
S. pneumoniae D39V [5], first compound 0.015 µg/mL, partner 4 µg/mL	0.583
S. pneumoniae D39V [5], first compound 0.03 µg/mL, partner 1 µg/mL	0.591
S. pneumoniae D39V [5], first compound 0.03 µg/mL, partner 2 µg/mL	0.625
S. pneumoniae D39V [5], first compound 0.03 µg/mL, partner 4 µg/mL	0.218
S. pneumoniae D39V [5], first compound 0.06 µg/mL, partner 1 µg/mL	0.177
S. pneumoniae D39V [5], first compound 0.06 µg/mL, partner 2 µg/mL	0.102
S. pneumoniae D39V [5], first compound 0.06 µg/mL, partner 4 µg/mL	0.114

O=C(O[C@@H]1Cc2c(O)cc(O)cc2O[C@@H]1c1cc(O)c(O)c(O)c1)c1cc(O)c(O)c(O)c1 [EGCG] + CN(N=O)C(=O)N[C@@H](C=O)[C@@H](O)[C@H](O)[C@H](O)CO [Streptozotocin]
Conditions	Bliss interaction score
B. subtilis 168 [4]	-0.0853
S. aureus DSM 20231 [3]	-0.0464
S. aureus Newman [2]	-0.0449
S. pneumoniae D39V [1]	0.0662

fitness
Conditions	first compound 6.25 µg/mL	first compound 12.5 µg/mL	first compound 25 µg/mL	first compound 50 µg/mL
B. subtilis 168 [8], partner 0.15 µg/mL	0.913	0.571	–	–
B. subtilis 168 [8], partner 0.3 µg/mL	0.856	0.62	0.449	–
B. subtilis 168 [8], partner 0.6 µg/mL	0.915	0.515	0.391	–
S. aureus DSM 20231 [7], partner 0.15 µg/mL	–	0.763	0.702	0.683
S. aureus DSM 20231 [7], partner 0.3 µg/mL	–	0.643	0.635	0.658
S. aureus DSM 20231 [7], partner 0.6 µg/mL	–	0.597	0.595	0.499
S. aureus Newman [6], partner 0.15 µg/mL	–	0.711	0.804	0.783
S. aureus Newman [6], partner 0.3 µg/mL	–	0.737	0.477	0.752
S. aureus Newman [6], partner 0.6 µg/mL	–	0.404	0.416	0.572
S. pneumoniae D39V [5], partner 1.2 µg/mL	–	0.911	0.947	0.919
S. pneumoniae D39V [5], partner 2.4 µg/mL	–	0.891	0.935	0.91
S. pneumoniae D39V [5], partner 4.8 µg/mL	–	0.907	≥ 1	≥ 1
